How the values were obtained:
[1] = biological target: T1, human orexin-1 receptor (Homo sapiens, UniProt O43613); assay: FLIPR intracellular calcium assay, orexin receptor antagonistic activity (OX1); type: cell-based; details: CHO cells expressing human orexin-1 receptor; 3 nM orexin-A; normalized to on-plate reference; *n = geometric mean from n values
T1 construct: expressed in transfected cells; host or cells: CHO (Chinese hamster ovary) cells, kept under G418
T1 sequence (O43613 1-425): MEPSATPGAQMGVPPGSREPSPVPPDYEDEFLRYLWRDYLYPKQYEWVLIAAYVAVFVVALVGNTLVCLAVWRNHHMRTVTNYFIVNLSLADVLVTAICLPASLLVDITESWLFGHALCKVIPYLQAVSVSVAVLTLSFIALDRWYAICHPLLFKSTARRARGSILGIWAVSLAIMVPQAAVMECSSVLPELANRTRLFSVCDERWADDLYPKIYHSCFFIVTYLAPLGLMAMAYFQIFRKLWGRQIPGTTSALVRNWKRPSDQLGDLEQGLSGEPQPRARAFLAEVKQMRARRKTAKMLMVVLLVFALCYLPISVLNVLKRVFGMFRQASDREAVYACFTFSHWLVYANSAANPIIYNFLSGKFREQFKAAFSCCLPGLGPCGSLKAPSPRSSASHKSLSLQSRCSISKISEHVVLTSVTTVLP
Protocol: (§1) The orexin receptor antagonistic activity of the compounds of formula (I) is determined in accordance with the following experimental method.
(§2) Chinese hamster ovary (CHO) cells expressing the human orexin-1 receptor and the human orexin-2 receptor, respectively, are grown in culture medium (Ham F-12 with L-Glutamine) containing 300 μg/ml G418, 100 U/ml penicillin, 100 μg/ml streptomycin and 10% heat inactivated fetal calf serum (FCS). The cells are seeded at 20′000 cells/well into 384-well black clear bottom sterile plates (Greiner). The seeded plates are incubated overnight at 37° C. in 5% CO2.
(§3) Human orexin-A as an agonist is prepared as 1 mM stock solution in MeOH:water (1:1), diluted in HBSS containing 0.1% bovine serum albumin (BSA), NaHCO3: 0.375 g/l and 20 mM HEPES for use in the assay at a final concentration of 3 nM.
(§4) Antagonists are prepared as 10 mM stock solution in DMSO, then diluted in 384-well plates using DMSO followed by a transfer of the dilutions into in HBSS containing 0.1% bovine serum albumin (BSA), NaHCO3: 0.375 g/l and 20 mM HEPES. On the day of the assay, 50 μl of staining buffer (HBSS containing 1% FCS, 20 mM HEPES, NaHCO3: 0.375 g/l, 5 mM probenecid (Sigma) and 3 μM of the fluorescent calcium indicator fluo-4 AM (1 mM stock solution in DMSO, containing 10% pluronic) is added to each well. The 384-well cell-plates are incubated for 50 min at 37° C. in 5% CO2 followed by equilibration at rt for 30-120 min before measurement.
(§5) Within the Fluorescent Imaging Plate Reader (FLIPR Tetra, Molecular Devices), antagonists are added to the plate in a volume of 10 μl/well, incubated for 10 min and finally 10 μl/well of agonist is added. Fluorescence is measured for each well at 1 second intervals, and the height of each fluorescence peak is compared to the height of the fluorescence peak induced by 3 nM orexin-A with vehicle in place of antagonist. For each antagonist, the IC50 value (the concentration of compound needed to inhibit 50% of the agonistic response) is determined and normalized using the obtained IC50 value of a on-plate reference compound. Optimized conditions were achieved by adjustment of pipetting speed and cell splitting regime. The calculated IC50 values of the compounds may fluctuate depending on the daily cellular assay performance. Fluctuations of this kind are known to those skilled in the art.

[2] = biological target: T2, human orexin-2 receptor (Homo sapiens, UniProt O43614); assay: FLIPR intracellular calcium assay, orexin receptor antagonistic activity (OX2); type: cell-based; details: CHO cells expressing human orexin-2 receptor; 3 nM orexin-A; normalized to on-plate reference; *n = geometric mean from n values
T2 construct: expressed in transfected cells; host or cells: CHO (Chinese hamster ovary) cells, kept under G418
T2 sequence (O43614 1-444): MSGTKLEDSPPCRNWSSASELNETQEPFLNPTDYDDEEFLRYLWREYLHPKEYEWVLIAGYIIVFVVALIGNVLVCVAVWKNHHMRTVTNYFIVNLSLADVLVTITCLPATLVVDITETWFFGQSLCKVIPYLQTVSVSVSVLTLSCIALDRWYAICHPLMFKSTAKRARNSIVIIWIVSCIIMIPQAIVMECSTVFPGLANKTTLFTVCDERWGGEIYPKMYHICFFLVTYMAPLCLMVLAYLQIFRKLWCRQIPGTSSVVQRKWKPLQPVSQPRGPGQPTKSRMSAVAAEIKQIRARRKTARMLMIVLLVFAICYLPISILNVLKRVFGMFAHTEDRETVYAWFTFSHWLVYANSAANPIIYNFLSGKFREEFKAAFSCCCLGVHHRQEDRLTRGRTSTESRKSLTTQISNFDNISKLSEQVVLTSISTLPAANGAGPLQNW
Protocol: as §1, §2, §3, §4, §5

An IC50 [1] of 154 nM and an IC50 [2] of 18 nM were found for `COc1cccc(OC)c1C1SCC(=O)N1Cc1ccc2ccccc2n1` (stereo not drawn) [Example 27, 2-(2,6-Dimethoxy-phenyl)-3-quinolin-2-ylmethyl-thiazolidin-4-one] in this work.
An IC50 [1] of 208 nM and an IC50 [2] of 16 nM were found for `COc1cncc(OC)c1C1SCC(=O)N1Cc1ccc(OC(F)(F)F)cc1` (stereo not drawn) [Example 28, 2-(3,5-Dimethoxy-pyridin-4-yl)-3-(4-trifluoromethoxy-benzyl)-thiazolidin-4-one] in this work.
An IC50 [1] of 1050 nM and an IC50 [2] of 36 nM were found for `CCOc1ccc(CN2C(=O)CSC2c2c(OC)cncc2OC)cc1` (stereo not drawn) [Example 29, 2-(3,5-Dimethoxy-pyridin-4-yl)-3-(4-ethoxy-benzyl)-thiazolidin-4-one] in this work.
An IC50 [1] of 356 nM and an IC50 [2] of 442 nM were found for `COc1cccc(OC)c1C1SC(C)C(=O)N1Cc1ccc2ccccc2n1` (stereo not drawn) [Example 30, 2-(2,6-Dimethoxy-phenyl)-5-methyl-3-quinolin-2-ylmethyl-thiazolidin-4-one] in this work.
An IC50 [1] of 11 nM and an IC50 [2] of 30 nM were found for `COc1ccc2cc(CN3C(=O)C(C)SC3c3c(OC)cccc3OC)ccc2c1` (stereo not drawn) [Example 31, 2-(2,6-Dimethoxy-phenyl)-3-(6-methoxy-naphthalen-2-ylmethyl)-5-methyl-thiazolidin-4-one] in this work.
An IC50 [1] of 15 nM and an IC50 [2] of 6 nM were found for `COc1ccc2cc(CN3C(=O)CSC3c3c(OC)cccc3OC)ccc2c1` (stereo not drawn) [Example 32, 2-(2,6-Dimethoxy-phenyl)-3-(6-methoxy-naphthalen-2-ylmethyl)-thiazolidin-4-one] in this work.
An IC50 [1] of 105 nM and an IC50 [2] of 8 nM were found for `COc1cc(F)cc(OC)c1C1SCC(=O)N1Cc1ccc(OC(F)(F)F)cc1` (stereo not drawn) [Example 33, 2-(4-Fluoro-2,6-dimethoxy-phenyl)-3-(4-trifluoromethoxy-benzyl)-thiazolidin-4-one] in this work.
An IC50 [1] of 107 nM and an IC50 [2] of 28 nM were found for `COc1cc(C)cc(OC)c1C1SCC(=O)N1Cc1ccc(OC(F)(F)F)cc1` (stereo not drawn) [Example 34, 2-(2,6-Dimethoxy-4-methyl-phenyl)-3-(4-trifluoromethoxy-benzyl)-thiazolidin-4-one] in this work.
An IC50 [1] of 170 nM and an IC50 [2] of 130 nM were found for `COc1cc(C)cc(OC)c1C1SC(C)C(=O)N1Cc1ccc(OC(F)(F)F)cc1` (stereo not drawn) [Example 35, 2-(2,6-Dimethoxy-4-methyl-phenyl)-5-methyl-3-(4-trifluoromethoxy-benzyl)-thiazolidin-4-one] in this work.
An IC50 [1] of 171 nM and an IC50 [2] of 33 nM were found for `COc1cc(F)cc(OC)c1C1SC(C)C(=O)N1Cc1ccc(OC(F)(F)F)cc1` (stereo not drawn) [Example 36, 2-(4-Fluoro-2,6-dimethoxy-phenyl)-5-methyl-3-(4-trifluoromethoxy-benzyl)-thiazolidin-4-one] in this work.
An IC50 [1] of 1310 nM and an IC50 [2] of 68 nM were found for `CCOc1ccccc1C1SCCC(=O)N1Cc1ccccc1OC(F)F` (stereo not drawn) [Example 40, 3-(2-Difluoromethoxy-benzyl)-2-(2-ethoxy-phenyl)-[1,3]thiazinan-4-one] in this work.
An IC50 [1] of 793 nM and an IC50 [2] of 70 nM were found for `CCOc1ccccc1C1SCCC(=O)N1Cc1c(OC)cccc1OC` (stereo not drawn) [Example 43, 3-(2,6-Dimethoxy-benzyl)-2-(2-ethoxy-phenyl)-[1,3]thiazinan-4-one] in this work.
An IC50 [1] of 1430 nM and an IC50 [2] of 21 nM were found for `CCOc1ccccc1C1SCC(=O)N1Cc1ccc(F)c(F)c1` (stereo not drawn) [Example 65, 3-(3,4-Difluoro-benzyl)-2-(2-ethoxy-phenyl)-thiazolidin-4-one] in this work.
An IC50 [1] of 778 nM and an IC50 [2] of 115 nM were found for `CCOc1ccccc1C1SCC(=O)N1Cc1ccc2c(c1)OCCO2` (stereo not drawn) [Example 72, 3-(2,3-Dihydro-benzo[1,4]dioxin-6-ylmethyl)-2-(2-ethoxy-phenyl)-thiazolidin-4-one] in this work.
An IC50 [1] of 2290 nM and an IC50 [2] of 13 nM were found for `CCOc1ccccc1C1SCC(=O)N1Cc1cccc(OC(F)(F)F)c1` (stereo not drawn) [Example 81, 2-(2-Ethoxy-phenyl)-3-(3-trifluoromethoxy-benzyl)-thiazolidin-4-one] in this work.
An IC50 [1] of 488 nM and an IC50 [2] of 51 nM were found for `CCOc1ccccc1CN1C(=O)CSC1c1c(OC)cccc1OC` (stereo not drawn) [Example 101, 2-(2,6-Dimethoxy-phenyl)-3-(2-ethoxy-benzyl)-thiazolidin-4-one] in this work.
An IC50 [1] of 355 nM and an IC50 [2] of 61 nM were found for `COc1cccc(OC)c1C1SCC(=O)N1Cc1cccc(OC(F)(F)F)c1` (stereo not drawn) [Example 119, 2-(2,6-Dimethoxy-phenyl)-3-(3-trifluoromethoxy-benzyl)-thiazolidin-4-one] in this work.
An IC50 [1] of 440 nM and an IC50 [2] of 30 nM were found for `COc1cccc(OC)c1C1SCC(=O)N1Cc1ccc(SC(F)(F)F)cc1` (stereo not drawn) [Example 139, 2-(2,6-Dimethoxy-phenyl)-3-(4-trifluoromethylsulfanyl-benzyl)thiazolidin-4-one] in this work.
An IC50 [1] of 86 nM and an IC50 [2] of 663 nM were found for `CCOc1ccc(CN2C(=O)C(C)(C)SC2c2c(OC)cccc2OC)cc1` (stereo not drawn) [Example 175, 2-(2,6-Dimethoxy-phenyl)-3-(4-ethoxy-benzyl)-5,5-dimethyl-thiazolidin-4-one] in this work.
An IC50 [1] of 20 nM and an IC50 [2] of 295 nM were found for `COc1cccc(OC)c1C1SC(C)(C)C(=O)N1Cc1ccc2ccccc2c1` (stereo not drawn) [Example 176, 2-(2,6-Dimethoxy-phenyl)-5,5-dimethyl-3-naphthalen-2-ylmethyl-thiazolidin-4-one] in this work.
An IC50 [1] of 1830 nM and an IC50 [2] of 125 nM were found for `COc1cccc(OC)c1C1SCC(=O)N1Cc1ccc(-c2ccccc2)cc1` (stereo not drawn) [Example 203, 3-Biphenyl-4-ylmethyl-2-(2,6-dimethoxy-phenyl)-thiazolidin-4-one] in this work.
An IC50 [1] of 2630 nM and an IC50 [2] of 533 nM were found for `COc1cc(C2SC(C)C(=O)N2Cc2nc3ccccc3[nH]2)ccc1OCc1ccccc1` (stereo not drawn) [Example 265, 3-(1H-Benzoimidazol-2-ylmethyl)-2-(4-benzyloxy-3-methoxy-phenyl)-5-methyl-thiazolidin-4-one] in this work.
An IC50 [1] of 263 nM and an IC50 [2] of 24 nM were found for `COc1cccc(OCCO)c1C1SCC(=O)N1Cc1ccc(OC(F)(F)F)cc1` (stereo not drawn) [Example 267, 2-[2-(2-Hydroxy-ethoxy)-6-methoxy-phenyl]-3-(4-trifluoromethoxy-benzyl)-thiazolidin-4-one] in this work.
An IC50 [1] of 1590 nM and an IC50 [2] of 121 nM were found for `COc1cccc(OC)c1C1SCC(=O)N1Cc1ccc(Oc2cncnc2)cc1` (stereo not drawn) [Example 276, 2-(2,6-Dimethoxy-phenyl)-3-[4-(pyrimidin-5-yloxy)-benzyl]-thiazolidin-4-one] in this work.
An IC50 [1] of 411 nM and an IC50 [2] of 8 nM were found for `COc1cccc(OC)c1C1SCC(=O)N1Cc1ccc(Oc2ccccn2)cc1` (stereo not drawn) [Example 277, 2-(2,6-Dimethoxy-phenyl)-3-[4-(pyridin-2-yloxy)-benzyl]-thiazolidin-4-one] in this work.
An IC50 [1] of 1030 nM and an IC50 [2] of 10 nM were found for `COc1cccc(OC)c1C1SCC(=O)N1Cc1ccc(Oc2cccnc2)cc1` (stereo not drawn) [Example 278, 2-(2,6-Dimethoxy-phenyl)-3-[4-(pyridin-3-yloxy)-benzyl]-thiazolidin-4-one] in this work.
An IC50 [1] of 1420 nM and an IC50 [2] of 32 nM were found for `COc1cccc(OC)c1C1SCC(=O)N1Cc1ccc(Oc2cnccn2)cc1` (stereo not drawn) [Example 279, 2-(2,6-Dimethoxy-phenyl)-3-[4-(pyrazin-2-yloxy)-benzyl]-thiazolidin-4-one] in this work.
